# In patent publication US20250388605A1, “HETEROBIFUNCTIONAL COMPOUNDS AND METHODS OF TREATING DISEASE” (Halda Therapeutics OpCo, Inc., priority 2022, published 2025):
# What was measured:
# [1] = system: T-Rex 293 cell line SC3 cells lacking increased expression of androgen receptor protein; experiment: Cellular growth inhibition, T-Rex 293 SC3 cells without doxycycline (no increased androgen receptor expression), CellTiter-Glo; type: cell-based; conditions: T-Rex 293 SC3 cells not exposed to doxycycline (no increased androgen receptor expression), 72 hours
# Method in brief: (§1)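 Growth inhibition is measured in an inducible AR-expressing T-Rex 293 clone, SC3, cultured with or without 10 ng/mL doxycycline in hormone-depleted medium. Test compounds are applied for 72 hours. GI50 values derive from CellTiter-Glo 2.0 signal fitted by four-parameter regression.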
# [2] = system: VCaP cells; experiment: Cellular growth inhibition assay for VCaP cells, CellTiter-Glo; type: cell-based, human; conditions: 72 hours
# Method in brief: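 GI50 values come from four-parameter curve fits of luminescence data normalized to a zero baseline. Compound, in medium with 0.5% DMSO, was added one day after plating and left for 72 h before CellTiter-Glo 2.0 addition.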
# [3] = system: T47D cells; experiment: Cellular Growth Inhibition Assay for T47D Cells (CellTiter-Glo); type: cell-based, human; conditions: 72 hours
# Method in brief: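 GI50 values derive from four-parameter regression of CellTiter-Glo 2.0 luminescence, using zero luminescence as baseline. Human breast cancer T47D cells (3000/well; DMEM, 10% FBS, 0.2 units/mL insulin) were exposed for 72 h to compound dilutions at 0.5% DMSO, with dosing starting 24 h after seeding.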
# [4] = system: T-Rex 293 cell line SC3 cells having increased expression of androgen receptor protein due to exposure to doxycycline; experiment: Cellular growth inhibition, T-Rex 293 SC3 cells with doxycycline (increased androgen receptor expression), CellTiter-Glo; type: cell-based; conditions: T-Rex 293 SC3 cells with 10 ng/mL doxycycline (increased androgen receptor expression), 72 hours, CellTiter-Glo 2.0
# Method in brief: as §1
SMILES,GI50 [1],GI50 ([2]; Homo sapiens),GI50 ([3]; Homo sapiens),GI50 [4],GI50 [2],GI50 [3]
CCS(=O)(=O)Nc1ccc(Oc2cccc(C3CN(CC4CCN(c5ncc(C(=O)N[C@H]6C(C)(C)[C@H](Oc7ccc(C#N)c(Cl)c7)C6(C)C)cn5)CC4)C3)c2)c(-c2cn(C)c(=O)c3[nH]ccc23)c1 [Compound I-78],< 500 nM,< 500 nM,< 500 nM,< 500 nM,–,–
CCS(=O)(=O)Nc1ccc(Oc2cccc(N3CC(CC4CCN(c5ncc(C(=O)N[C@H]6C(C)(C)[C@H](Oc7ccc(C#N)c(Cl)c7)C6(C)C)cn5)CC4)C3)c2)c(-c2cn(C)c(=O)c3[nH]ccc23)c1 [Compound I-79],500 to 1500 nM,< 500 nM,< 500 nM,< 500 nM,–,–
CCS(=O)(=O)Nc1ccc(Oc2cccc(N3CCC(OC4CCN(c5ncc(C(=O)N[C@H]6C(C)(C)[C@H](Oc7ccc(C#N)c(Cl)c7)C6(C)C)cn5)CC4)C3)c2)c(-c2cn(C)c(=O)c3[nH]ccc23)c1 (some centres unmarked) [Compound I-81],> 3000 nM,< 500 nM,< 500 nM,< 500 nM,–,–
CCS(=O)(=O)Nc1ccc(Oc2cccc(N3CCC(OC4CCN(c5ncc(C(=O)N[C@H]6C(C)(C)[C@H](Oc7ccc(C#N)c(Cl)c7)C6(C)C)cn5)CC4)CC3)c2)c(-c2cn(C)c(=O)c3[nH]ccc23)c1 [Compound I-82],> 3000 nM,< 500 nM,< 500 nM,< 500 nM,–,–
"Cn1cc(-c2cc(N)ccc2Oc2cccc(N3CC(N4CCN(c5ncc(C(=O)N[C@H]6C(C)(C)[C@H](Oc7ccc(C#N)c(Cl)c7)C6(C)C)cn5)CC4)C3)c2)c2cc[nH]c2c1=O [Compound I-89, 2-(4-(1-(3-(4-amino-2-(6-methyl-7-oxo-6,7-dihydro-1H-pyrrolo[2,3-c]pyridin-4-yl)phenoxy)phenyl)azetidin-3-yl)piperazin-1-yl)-N-((1r, 3r)-3-(3-chloro-4-cyanophenoxy)-2,2,4,4-tetramethylcyclobutyl)pyrimidine-5-carboxamide]",> 3000 nM,< 500 nM,500 to 1500 nM,< 500 nM,–,–
Cn1cc(-c2ccccc2Oc2cccc(OCCC3CCN(c4ncc(C(=O)N[C@H]5C(C)(C)[C@H](Oc6ccc(C#N)c(Cl)c6)C5(C)C)cn4)CC3)c2)c2cc[nH]c2c1=O [Compound I-102],500 to 1500 nM,< 500 nM,1500 to 3000 nM,< 500 nM,–,–
Cn1cc(-c2cc(N)ccc2Oc2cccc(OCCC3CCN(c4ncc(C(=O)N[C@H]5C(C)(C)[C@H](Oc6ccc(C#N)c(Cl)c6)C5(C)C)cn4)CC3)c2F)c2cc[nH]c2c1=O [Compound I-103],> 3000 nM,< 500 nM,1500 to 3000 nM,< 500 nM,–,–
CCS(=O)(=O)Cc1ccc(Oc2cccc(N3CC(N4CCN(c5ncc(C(=O)N[C@H]6C(C)(C)[C@H](Oc7ccc(C#N)c(Cl)c7)C6(C)C)cn5)CC4)C3)c2)c(-c2cn(C)c(=O)c3[nH]ccc23)c1 [Compound I-114],< 500 nM,< 500 nM,< 500 nM,< 500 nM,–,–
Cn1cc(-c2ccccc2Oc2cccc(OCCN3CCN(c4ncc(C(=O)N[C@H]5C(C)(C)[C@H](Oc6ccc(C#N)c(Cl)c6)C5(C)C)cn4)CC3)c2F)c2cc[nH]c2c1=O [Compound I-115],< 500 nM,–,–,< 500 nM,< 500 nM,500 to 1500 nM
Cn1cc(-c2ccccc2Oc2cccc(OCCC3CCN(c4ncc(C(=O)N[C@H]5C(C)(C)[C@H](Oc6ccc(C#N)c(Cl)c6)C5(C)C)cn4)CC3)c2F)c2cc[nH]c2c1=O [Compound I-117],> 3000 nM,–,–,< 500 nM,< 500 nM,500 to 1500 nM
"CC(C)c1ccc(Oc2cccc(N3CC(N4CCN(c5ncc(C(=O)N[C@H]6C(C)(C)[C@H](Oc7ccc(C#N)c(Cl)c7)C6(C)C)cn5)CC4)C3)c2)c(-c2cn(C)c(=O)c3[nH]ccc23)c1 [Compound I-122, N-[3-(3-chloro-4-cyano-phenoxy)-2,2,4,4-tetramethyl-cyclobutyl]-2-[4-[1-[3-[4-isopropyl-2-(6-methyl-7-oxo-1H-pyrrolo[2,3-c]pyridin-4-yl)phenoxy]phenyl]azetidin-3-yl]piperazin-1-yl]pyrimidine-5-carboxamide]",> 3000 nM,> 3000 nM,500 to 1500 nM,< 500 nM,–,–
